# Reference: ChEMBL document CHEMBL5034011, “Discovery and Optimization of a 4-Aminopiperidine Scaffold for Inhibition of Hepatitis C Virus Assembly” (J Med Chem, 2021)
# Key:
# [1] = AUClast in CD-1 mouse plasma at 10 mg/kg; assay type: ADME, organism-based; set-up: time 0 - last, dose 10 mg/kg
# [2] = Tmax in CD-1 mouse brain at 10 mg/kg; assay type: ADME, organism-based
# [3] = Tmax in CD-1 mouse plasma at 10 mg/kg; assay type: ADME, organism-based
# [4] = Tmax in CD-1 mouse liver at 10 mg/kg; assay type: ADME, organism-based
# [5] = Permeability of the compound by PAMPA method; assay type: ADME; conditions: for Papp: read-out: permeability
# [6] = AUClast in CD-1 mouse liver at 10 mg/kg; assay type: ADME, organism-based; set-up: time 0 - last, dose 10 mg/kg
# [7] = AUClast in CD-1 mouse brain at 10 mg/kg; assay type: ADME, organism-based; set-up: time 0 - last, dose 10 mg/kg
# [8] = Cmax in CD-1 mouse plasma at 10 mg/kg; assay type: ADME, organism-based; set-up: dose 10 mg/kg
# [9] = Cmax in CD-1 mouse liver at 10 mg/kg; assay type: ADME, organism-based; set-up: dose 10 mg/kg
# [10] = Ratio of AUClast in liver to plasma in CD-1 mouse at 10 mg/kg; assay type: ADME, organism-based
# [11] = Ratio of AUClast in brain to plasma in CD-1 mouse at 10 mg/kg; assay type: ADME, organism-based
# [12] = Kinetic aqueous solubility of compound by pION uSOL method at pH 7.4; conditions: buffer
# [13] = AUClast in CD-1 mouse plasma at 1 mg/kg; assay type: ADME, organism-based; set-up: time 0 - last, dose 1 mg/kg
# [14] = AUClast in CD-1 mouse liver at 1 mg/kg; assay type: ADME, organism-based; set-up: time 0 - last, dose 1 mg/kg
# [15] = AUClast in CD-1 mouse brain at 1 mg/kg; assay type: ADME, organism-based; set-up: time 0 - last, dose 1 mg/kg
# [16] = Tmax in CD-1 mouse plasma at 1 mg/kg; assay type: ADME, organism-based
# [17] = Tmax in CD-1 mouse liver at 1 mg/kg; assay type: ADME, organism-based
# [18] = Tmax in CD-1 mouse brain at 1 mg/kg; assay type: ADME, organism-based
# [19] = Cmax in CD-1 mouse liver at 1 mg/kg; assay type: ADME, organism-based; set-up: dose 1 mg/kg
# [20] = Cmax in CD-1 mouse brain at 1 mg/kg; assay type: ADME, organism-based; set-up: dose 1 mg/kg
# [21] = Ratio of AUClast in liver to plasma in CD-1 mouse at 1 mg/kg; assay type: ADME, organism-based
# [22] = Ratio of AUClast in brain to plasma in CD-1 mouse at 1 mg/kg; assay type: ADME, organism-based
smiles,measurement,setting,value
Clc1cc(CN(C2CCNCC2)C2CC(c3ccc(Br)cc3)C2)ccc1Br (stereo not drawn),AUC(0-t),[1],10500 ng·h/mL
same,Tmax,[2],24 h
same,Tmax,[3],0.5 h
same,Tmax,[4],1 h
same,Papp,[5],32 ×10⁻⁶ cm/s
same,AUC(0-t),[6],793000 ng·h/mL
same,AUC(0-t),[7],56800 ng·h/mL
same,Cmax,[8],759 ng/mL
same,Cmax,[9],57400 ng/mL
same,Kp,[10],76
same,Kp,[11],54
same,solubility kinetic,[12],3.32 µg/mL
Cc1ccc(C2CC(N(Cc3ccc(Br)c(Cl)c3)C3CCCNC3)C2)cc1 (stereo not drawn),solubility kinetic,[12],13.3 µg/mL
Cc1ccc([C@H]2C[C@@H](N(Cc3ccc(Br)c(Cl)c3)C3CCNCC3)C2)cc1,solubility kinetic,[12],9.71 µg/mL
CC(=O)N1CCC(N(Cc2ccc(Br)c(Cl)c2)C2CC(c3ccc(C)cc3)C2)CC1 (stereo not drawn),permeability,[5],1909 10^-6 cm/s
same,solubility kinetic,[12],< 1 µg/mL
Clc1cc(CN(C2CCNCC2)C2CC(c3cccc(Br)c3)C2)ccc1Br (stereo not drawn),Papp,[5],14 ×10⁻⁶ cm/s
same,solubility kinetic,[12],3.94 µg/mL
Cc1ccc(C2CC(N(Cc3ccc(Br)c(Cl)c3)C3CCC(N)CC3)C2)cc1 (stereo not drawn),Papp,[5],818 ×10⁻⁶ cm/s
Cc1ccc(C2CC(N(Cc3ccc(Br)c(Cl)c3)C3CC4CNC3C4)C2)cc1 (stereo not drawn),Papp,[5],123 ×10⁻⁶ cm/s
same,solubility kinetic,[12],7.26 µg/mL
Fc1ccc(C2CC(N(Cc3ccc(Br)c(Cl)c3)C3CCNCC3)C2)cc1 (stereo not drawn),Papp,[5],398 ×10⁻⁶ cm/s
Cc1ccc(C2CC(N(Cc3ccc(Br)c(Cl)c3)C3CCOCC3)C2)cc1 (stereo not drawn),Papp,[5],< 6.4 ×10⁻⁶ cm/s
same,solubility kinetic,[12],< 1 µg/mL
Cc1ccc(C2CC(N(Cc3ccc(Br)c(Cl)c3)C3CCN(C(C)C)CC3)C2)cc1 (stereo not drawn),Papp,[5],< 23.1 ×10⁻⁶ cm/s
same,solubility kinetic,[12],15.4 µg/mL
Cc1ccc(C2CC(N(Cc3ccc(Br)c(Cl)c3)C3CCNCC3)C2)cc1 (stereo not drawn),Papp,[5],806 ×10⁻⁶ cm/s
same,solubility kinetic,[12],18.2 µg/mL
Cc1ccc(C2CC(N(Cc3ccc(Br)c(Cl)c3)C3CC4CCC(C3)N4)C2)cc1 (stereo not drawn),solubility kinetic,[12],11.1 µg/mL
Cc1ccc(C2CC(N(Cc3ccc(Br)c(Cl)c3)C3CCN(C)CC3)C2)cc1 (stereo not drawn),Papp,[5],274 ×10⁻⁶ cm/s
same,solubility kinetic,[12],22.9 µg/mL
Cc1ccc(C2CC(N(Cc3ccc(Br)c(Cl)c3)C3C4CCC3CNC4)C2)cc1 (stereo not drawn),solubility kinetic,[12],< 1 µg/mL
Cc1ccc(C2CC(N(Cc3ccc(Br)c(Cl)c3)C3CCNC3)C2)cc1 (stereo not drawn),solubility kinetic,[12],23.2 µg/mL
Cc1ccc([C@H]2C[C@H](N(Cc3ccc(Br)c(Cl)c3)C3CCNCC3)C2)cc1,AUC(0-t),[13],275 ng·h/mL
same,AUC(0-t),[14],9570 ng·h/mL
same,AUC(0-t),[15],3000 ng·h/mL
same,Tmax,[16],0.167 h
same,Tmax,[17],2 h
same,Tmax,[18],1.5 h
same,Cmax,[19],1850 ng/mL
same,Cmax,[20],153 ng/mL
same,Kp,[21],35
same,Kp,[22],11
same,solubility kinetic,[12],1.09 µg/mL
Clc1cccc(C2CC(N(Cc3ccc(Br)c(Cl)c3)C3CCNCC3)C2)c1 (stereo not drawn),solubility kinetic,[12],4 µg/mL
Cc1cccc(C2CC(N(Cc3ccc(Br)c(Cl)c3)C3CCNCC3)C2)c1 (stereo not drawn),Papp,[5],265 ×10⁻⁶ cm/s
Cc1ccc(C2CC(N(Cc3ccc(Br)c(Cl)c3)C3CCCNCC3)C2)cc1 (stereo not drawn),Papp,[5],666 ×10⁻⁶ cm/s
same,solubility kinetic,[12],25.6 µg/mL
